Source: patent publication US20260166313A1, “WIRELESS PATCH SYSTEM FOR TRANSDERMAL, TRANSMUCOSAL AND DENTAL ELECTRICAL DRUG DELIVERY” (priority 2015, published 2026)

Assay: ACEK effect (DEP, ACEO, ACET) on drug particles over the inductively powered IDE, observed by light microscopy
Assay type: physicochemical
Conditions: for negative DEP (nDEP) detection / ACET effect detection: any frequency range; for negative DEP (nDEP) detection: DI water
Source text: In order to study the functionality of the patch in terms of a demodulation circuit and ACEK effect, a very simple set-up was constructed which is shown in FIG. 2C. The experimental set-up includes the dental patch, an optical microscope, AC waveform generators, a digital oscilloscope and some probe connectors. A microchamber was sealed over the IDE to hold the solution (FIG. 2C). […] The movement of particles was observed by an optical microscope NIKON ECLIPSE LV100 (Nikon Instruments, Inc., Melville, New York, United States of America) and the images from the microscope were acquired by a Roper Scientific (Tucson, Arizona, United States of America) digital camera and subsequently transferred to a computer. An AM signal with the amplitude of 10 V was applied to the primary coil. The AM signal applied to the primary coil was generated by two Agilent Arbitrary Waveform Generators (model 33220A). The carrier signal frequency was 8 MHz. The separation between primary and secondary coil is 10 mm. An Agilent Mixed Signal Oscilloscope (model MSO6012A) was used to record the demodulated signal. […] The frequency of the modulating signal was continuously swept in order to find an appropriate frequency at which ACEK effect occurs. […] The ACEK effect on Tetracycline, Acetaminophen, Benzocaine and Lidocaine was studied.

SMILES | negative DEP (nDEP) detection | ACET effect detection | frequency of maximum ACEO vortices (field 15 Vpp/mm) [KHz] | frequency of maximum ACEO vortices (field 10 Vpp/mm) [Hz]
CC(=O)Nc1ccc(O)cc1 [acetaminophen] | No negative DEP (nDEP) was detected |  |  | 
CCOC(=O)c1ccc(N)cc1 [benzocaine] | No nDEP or ACET effects were detected | No nDEP or ACET effects were detected | 1 | 
CCN(CC)CC(=O)Nc1c(C)cccc1C [lidocaine] | No nDEP or ACET effects were detected | No nDEP or ACET effects were detected |  | 500
